Patent US20180271996A1, “COMBINATION THERAPIES OF HER2-TARGETED ANTIBODY-DRUG CONJUGATES” (Mersana Therapeutics, Inc., priority 2017, published 2018)
Non-standard residues stand in square brackets, D forms with d. Residues, ends and D or L forms follow the SMILES beside them. *: point of attachment. Dolaproine = CO[C@@H]([C@@H]1CCCN1)[C@@H](C)C(=O)O; Dil = CC[C@H](C)[C@H](NC)[C@@H](CC(=O)O)OC; NMe2Val = CC(C)[C@@H](C(=O)*)N(C)C; NH(3-hydroxypropyl) = OCCCN*

Legend:
SKBR3 [1] = assay: ATP release from cells (ENLITEN ATP Assay), SKBR3; assay type: cell-based; conditions: AF-HPA or XMT-1519 conjugate at 0.5 μM, 24 h, mitoxantrone positive control, compared to untreated (control) cells, FIG. 2
Experimental: (§1) Cancer cells undergoing apoptosis in response to specific anticancer therapies are immunogenic (also known as immunogenic cell death (ICD)), as long as they emit precise DAMPs in a spatiotemporally defined fashion. […] Mitoxantrone, a known strong inducer of ICD and ATP release, was used as a positive control. Briefly, two HER2 expressing cell lines, JIMT-1 (cat. # ACC589, DSMZ Cell Collection) and SKBR3 (cat # ATCC® HTB 30™, American Tissue Culture Collection) were seeded at a density of 7500 cells per well in 24 wells plate, allowed to grow for 24 h, and then treated with AF-HPA or XMT-1519 conjugate at 0.5 μM in 100 μl in […] (Cat#11875-119, Thermo Fisher Scientific) for 24 h. The cells were then pelleted by centrifugation and ATP release was measured using ENLITEN® ATP Assay System (Promega) according to manufacturer's instructions.

NCI-N87 cells = assay: Calreticulin exposure on cell membrane (flow cytometry), NCI-N87; assay type: cell-based, human; conditions: 2.5 h at 37° C
Experimental: (§2) High HER2-expressing cell lines, NCI-N87 (800,000 HER2 receptors), SKBR3 (700,000 HER2 receptors) and low HER2 expressing cell line HT-29 (16,000 HER2 receptors) were re-suspended at a density of 2×10^6 cells/mL in 100 μl PBS containing 2% FBS. Cells in 96 well plate (Corning® 96 Well Clear Round Bottom Polypropylene Not Treated Microplate cat#3879) were treated with XMT-1519 conjugate or AF-HPA at 1 μM or with mitoxantrone, a strong calreticulin exposure inducer, at 0.01 to 1 μM for 2.5 h at 37° C. Cells were then incubated with anti-calreticulin antibody (clone 16B11.1 Cat: MABT217, Millipore Sigma, 1:200) in ice cold PBS containing 2% FBS for 1 h on ice, washed twice with cold PBS containing 2% and then incubated for 20 min on ice with a secondary antibody (Alexa 647-anti Mouse IgG (H+L) 1:800, Thermo Fisher Scientific Cat#:A32728) in ice cold PBS containing 2% FBS. Thereafter the cells were stained with Annexin V (Pacific Blue™ cat# A35122, Thermo Fisher Scientific) according to manufacturer's instructions to identify apoptotic cell population. Necrotic cell population was labeled by propidium iodide (cat# P3566 Thermo Fisher Scientific) at 1:1000 dilution. Cells were then analyzed by flow cytometry using MACSQuant® Analyzer 10. Apoptotic and necrotic cell populations were excluded and only live cells for measured for calreticulin exposure.

JIMT-1 = assay: ATP release from cells (ENLITEN ATP Assay), JIMT-1; assay type: cell-based, human; conditions: AF-HPA or XMT-1519 conjugate at 0.5 μM, 24 h, mitoxantrone positive control, compared to untreated (control) cells, FIG. 2
Experimental: as §1

human HER2 = human HER2 (Homo sapiens, UniProt P04626); assay: Inhibition of HER2 functional activity in vitro
Experimental: The HER2 antibodies disclosed herein serve to modulate, block, inhibit, reduce, antagonize, neutralize or otherwise interfere with the functional activity of HER2. HER2. Functional activities of HER2 include for example, modulation of PI3K-Akt pathway activity. […] PI3K-Akt pathway activity is assessed using any art-recognized method for detecting PI3K-Akt pathway activity, including, but not limited to detecting levels of phosphorylated Akt in the presence and absence of an antibody or antigen binding fragment disclosed herein.
The HER2 antibodies are considered to completely modulate, block, inhibit, reduce, antagonize, neutralize or otherwise interfere with HER2 functional activity when the level of HER2 functional activity in the presence of the HER2 antibody is decreased by at least 95%, e.g., by 96%, 97%, 98%, 99% or 100% as compared to the level of HER2 functional activity in the absence of binding with a HER2 antibody described herein. The HER2 antibodies are considered to partially modulate, block, inhibit, reduce, antagonize, neutralize or otherwise interfere with HER2 functional activity when the level of HER2 activity in the presence of the HER2 antibody is decreased by less than 95%, e.g., 10%, 20%, 25%, 30%, 40%, 50%, 60%, 75%, 80%, 85% or 90% as compared to the level of HER2 activity in the absence of binding with a HER2 antibody described herein.

[2] = test system: TumorGraft™ model of non-small cell lung carcinoma (CTG-0860); assay: Antitumor activity in low passage TumorGraft model of non-small cell lung carcinoma in humanized mice (CTG-0860); assay type: in vivo; conditions: per Table 1: XMT-1519 conjugate 1.0 mg/kg IV q7dx3; pembrolizumab 2.5 mg/kg IP q5dx6; n=5 per group; FIG. 1
Experimental: Unmatched human leukocyte antigen (HLA) humanized CD34+ engrafted immune compromised female mice (Taconic NOG) were subcutaneously implanted unilaterally on the left flank with tumor fragments (n=5 for each group and two additional mice for tumor infiltration lymphocytes measurement for the test compounds only). […] Tumor size was measured at the times indicated in FIG. 1 using digital calipers. Tumor volume was calculated and was used to determine the tumor growth inhibition. Control mice were sacrificed when tumors reached a size of 1500 mm^3. Tumor volumes are reported as the mean±SEM for each group.
When tumors reached a size of 1500 mm^3 in control mice, they were sacrificed as well as two mice from each treatment groups, and tumor infiltration lymphocytes were analyzed. At the study endpoint (day 49) all the surviving mice were sacrificed and tumor infiltration lymphocytes were analyzed. Tumors were dissociated and analyzed for tumor infiltrating lymphocytes by flow cytometry for the following markers: human CD45 infiltrating lymphocytes, hCD3 (T cells), hCD4 (helper T cells), hCD8 (cytotoxic T cells), hCD19 (B cells), T cells activation and proliferation—hCD25.

HT-29 = assay: Calreticulin exposure on cell membrane (flow cytometry), HT-29; assay type: cell-based; conditions: HT-29 (16,000 HER2 receptors, low HER2); 1 μM, 2.5 h at 37° C; FIG. 3
Experimental: as §2

SKBR3 [3] = assay: Calreticulin exposure on cell membrane (flow cytometry), SKBR3; assay type: cell-based; conditions: SKBR3 (700,000 HER2 receptors); 1 μM, 2.5 h at 37° C; FIG. 3
Experimental: as §2

[4] = test system: 4T1-7bb7 cells (human HER2-expressing mouse 4T1 breast cancer); assay: Tumor response in 4T1-7bb7 syngeneic mouse model (Example 5); assay type: in vivo, Balb/c mice; conditions: per Table 2: XMT-1519 conjugate 4.0 mg/kg IV qwx2; Kadcyla 15.0 mg/kg IV qwx2; anti-PD1 mAb 10.0 mg/kg IP days 0, 2, 4, 7, 10; n=13; FIG. 5
Experimental: Tumor growth inhibition (% TGI) was defined as the percent difference in median tumor volumes (MTVs) between treated and control groups.
Treatment efficacy was determined from the incidence and magnitude of regression responses of the tumor size observed during the study. Treatment may cause partial regression (PR) or complete regression (CR) of the tumor in an animal. In a PR response, the tumor volume was 50% or less of its Day 1 volume for three consecutive measurements during the course of the study, and equal to or greater than 13.5 mm^3 for one or more of these three measurements. In a CR response, the tumor volume was less than 13.5 mm^3 for three consecutive measurements during the course of the study. An animal with a CR response at the termination of a study was additionally classified as a tumor-free survivor (TFS). Animals were monitored for regression responses.
Six to eight week old female, Balb/c mice (Jackson Labs, Bar Harbor, Me.) were subcutaneously implanted unilaterally on the left flank with 4×10^4/mouse 4T1-7bb7 cells (n=13 mice/group). […] Tumor sizes were measured twice a week using digital calipers, and average tumor volume was calculated to determine tumor growth inhibition. […]

[5] = NCI-N87 (800,000 HER2 receptors), 1 μM, live cells only, FIG. 3

Compound | ATP release (SKBR3 [1]) | calreticulin exposure on cell membrane (NCI-N87 cells; [5]) | ATP release (JIMT-1) | calreticulin exposure on cell membrane (NCI-N87 cells; NCI-N87, mitoxantrone at 0.01 to 1 μM, FIG. 3 panel (a)) | functional activity of HER2 (human HER2) | tumor response (tumor volume / tumor growth inhibition) [2] | calreticulin exposure on cell membrane (HT-29) | calreticulin exposure on cell membrane (SKBR3 [3]) | tumor response (tumor growth inhibition / anti-tumor efficacy) [4]
CC[C@H](C)[C@@H]([C@@H](CC(=O)N1CCC[C@H]1[C@H](OC)[C@@H](C)C(=O)N[C@@H](Cc1ccccc1)C(=O)NCCCO)OC)N(C)C(=O)[C@@H](NC(=O)[C@H](C(C)C)N(C)C)C(C)C [AF-HPA, Auristatin F-hydroxypropyl amide] (NMe2Val-V[Dil][Dolaproine]F-{NH(3-hydroxypropyl)}) | ATP was released | induced calreticulin exposure | ATP was released | – | – | – | – | – | –
O=C1c2c(O)ccc(O)c2C(=O)c2c(NCCNCCO)ccc(NCCNCCO)c21 [mitoxantrone, reference compound] | ATP was released | – | ATP was released | dose dependent calreticulin exposure | – | – | – | – | –
XMT 1519: fully human HER2 monoclonal antibody, heavy chain SEQ ID NO: 5, light chain SEQ ID NO: 6 | – | – | – | – | inhibit the functional activity of HER2 in vitro | – | – | – | –
XMT 1519-(EG2-MI-(7.7 kDa PHF-BA-(AF-HPA-Ala))) [XMT-1519 conjugate] | ATP was released | induced calreticulin exposure | ATP was released | – | – | decrease in tumor volume | induced calreticulin exposure | induced calreticulin exposure | significant inhibition of tumor growth
